Results on 5 compounds are retold here after patent US20230058623A1, “NOVEL HETEROARYL-TRIAZOLE COMPOUNDS AS PESTICIDES” (Bayer Aktiengesellschaft, priority 2019, published 2023).

Usually mortality stands for the share of the test organisms that died.

Holding throughout (type): in vivo
The subject of assay [1] is adult mosquitoes Aedes aegypti strain MONHEIM. Description: Aedes aegypti test (AEDSAE surface treatment & contact assay). To be noted: 24 hours after contact, read-out: efficacy (mortality); for mortality at 4 mg/m2: surface concentration 4 mg/m^2, exposure 30 minutes; for mortality at 20 mg/m2: surface concentration 20 mg/m^2, exposure 30 minutes. The gist of the method:
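Compound in acetone (2 mg/ml) with 2000 ppm RME dried onto glazed tile; adults exposed to the treated surface for 30 min. Percent mortality scored 24 h after contact.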

Assay [2] has as its system cattle ticks (Rhipicephalus microplus) strain Parkhurst, SP-resistant. Briefly: Rhipicephalus (Boophilus) microplus dip test. As to conditions: 168 h, application rate 100 ppm, egg deposition after 7 days, read-out: activity (efficacy: infertile eggs). How it is done: Rhipicephalus (Boophilus) microplus—Dip Test
Test animal: cattle ticks (Rhipicephalus microplus) strain Parkhurst, SP-resistant
Solvent: dimethyl sulfoxide
To produce a suitable preparation of active compound, 10 mg of active compound are dissolved in 0.5 mL solvent, and the concentrate is diluted with water to the desired concentration.
This compound solution is pipetted into tubes. 8-10 engorged, adult, female cattle ticks (Rhipicephalus microplus) are placed in perforated tubes. These tubes are immersed in the aqueous compound solution until the ticks are completely moistened. After the liquid has drained off, the ticks are transferred to a filter paper in a plastic tray and stored in a climate chamber.
After 7 days egg deposition of fertile eggs is monitored. Eggs where fertility is not visible are stored in a climate chamber till hatching after about 42 days. An efficacy of 100% means all eggs are infertile; 0% means all eggs are fertile.

For assay [3], the system named is adult mosquitoes Anopheles funestus strain FUMOZ-R. Briefly: Anopheles funestus test (ANPHFU surface treatment & contact assay). To be noted: 24 hours after contact, read-out: efficacy (mortality); for mortality at 20 mg/m2: surface concentration 20 mg/m^2, exposure 30 minutes. How it is done: Anopheles funestus Test (ANPHFU Surface Treatment & Contact Assay)
(§1) Solvent: Aceton+2000 ppm rapeseed oil methyl ester (RME)
In order to produce a sufficient, active ingredient containing solution it is necessary to solve the test compound in the solvent-mix (acetone at 2 mg/ml/RME 2000 ppm). This solution is pipetted onto a glazed tile and after evaporation of the acetone, adult mosquitoes of the species Anopheles funestus strain FUMOZ-R (Hunt et al., Med. Vet. Entomol. 2005 September; 19(3): 271-275) are placed onto the dried surface. The exposure time is 30 minutes.
(§2) Mortality in percent (%) is determined 24 hours after contact of the insects to the treated surface. 100% mortality means that all tested insects are dead, whereas 0% means that no insect died.

The test system of assay [4] is two spotted spidermite (Tetranychus urticae). Briefly: Tetranychus urticae spray test OP-resistant. To be noted: foliar, 144 h, application rate 100 g/ha, after 6 days, French bean leaf disks. How it is done: Tetranychus urticae—Spray Test OP-Resistant
To produce a suitable preparation of active compound, 1 part by weight of active compound is mixed with the stated amount of solvents and is diluted with water, containing an emulsifier concentration of 1000 ppm, to the desired concentration. Further test concentrations are prepared by dilution with emulsifier containing water.
French bean (Phaseolus vulgaris) leaf disks infected with all instars of the two spotted spidermite (Tetranychus urticae) are sprayed with a preparation of the active ingredient of the desired concentration.
After 6 days mortality in % is determined. 100% means all spider mites have been killed and 0% means none of the spider mites have been killed.

Assay [5] concerns brown planthopper (Nilaparvata lugens). Description: Nilaparvata lugens spray test. As to conditions: 96 h, after 4 days, rice plants; for mortality at 100 g/ha: application rate 100 g/ha. Put shortly: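 Rice plants sprayed with compound diluted in water containing 1000 ppm emulsifier, then infested with brown planthopper. Mortality (%) scored after 4 days, 100% meaning all insects killed.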

In assay [6] the test system is larvae of the banded cucumber beetle (Diabrotica balteata). Description: Diabrotica balteata spray test. To be noted: 168 h, after 7 days, wheat seeds, read-out: activity (efficacy: seedlings grown); for pest or weed control at 32 µg/disc, 100 g/ha: application rate 100 g/ha (=32 μg/well). The gist of the method:
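Wheat seeds germinated 1 day on agar were sprayed with compound diluted in water with 1000 ppm emulsifier, then infested with 10-20 Diabrotica balteata larvae. Efficacy in % scored after 7 days: 100% = seedlings grown as untreated, uninfected control; 0% = no seedlings grown.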

Assay [7] concerns Rhipicephalus (Boophilus) microplus larvae (strain Parkhurst, resistant against synthetic pyrethroids). Briefly: Rhipicephalus (Boophilus) microplus in-vitro contact test, larval cattle tick. To be noted: after 48 hours, read-out: activity (efficacy: larvae dead or moribund); for pest or weed control at 1 µg/cm2, 100 g/ha: application rate 1 μg/cm^2 (=100 g/ha); for pest or weed control at 5 µg/cm2, 500 g/ha: application rate 5 μg/cm^2 (=500 g/ha). The gist of the method: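 Acetone solutions were coated onto glass tube walls, giving 5 μg/cm^2 at 900 ppm. Once dry, 20–50 pyrethroid-resistant Parkhurst larvae were added per tube and held 48 h at 27 °C and 85% RH. Efficacy was scored by negative geotaxis as the percentage of dead or moribund larvae.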

Assay [8] relates to green peach aphid (Myzus persicae). Briefly: Myzus persicae spray test. To be noted: foliar, 120 h, after 5 days, Chinese cabbage leaf disks; for mortality at 100 g/ha: application rate 100 g/ha, read-out: activity (mortality). The gist of the method:
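Chinese cabbage leaf disks infested with all aphid instars were sprayed with compound diluted in water containing emulsifier (1000 ppm). Mortality (%) was scored after 5 days, 100% meaning all aphids killed.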

Assay [9] deals with adult mosquitoes Culex quinquefasciatus strain P00. Description: Culex quinquefasciatus test (CULXFA surface treatment & contact assay). As to conditions: surface concentration 20 mg/m^2, exposure 30 minutes, 24 hours after contact, read-out: efficacy (mortality). On the procedure: Culex quinquefasciatus Test (CULXFA Surface Treatment & Contact Assay)
as §1
In order to produce a sufficient, active ingredient containing solution it is necessary to solve the test compound in the solvent-mix (acetone at 2 mg/ml/RME 2 000 ppm). This solution is pipetted onto a glazed tile and after evaporation of the acetone, adult mosquitoes of the species Culex quinquefasciatus strain P00 are placed onto the dried surface. The exposure time is 30 minutes.
as §2

As for `C[C@H](NC(=O)c1cc(C(F)(F)F)cc(C(F)(F)F)c1)c1ncnn1-c1ccc(C(=O)N2CCOCC2)cn1` [Example I-2], the mortality at 4 mg/m2 in assay [1] was 80 to 100%. Further, the mortality at 20 mg/m2 in [1] and in assay [3] was 80 to 100% in each case. In assay [2], the pest or weed control at 100 ppm was determined as 100%. For the same compound, the mortality at 100 g/ha in assay [4] is 90%; in [5], 90%; in [8], 100%. The mortality at 500 g/ha in assay [5] (application rate 500 g/ha) and in assay [8] (application rate 500 g/ha) was 100% each time. In addition, in assay [6], the pest or weed control at 32 µg/disc, 100 g/ha is 100%. Besides, in assay [6] (application rate 500 g/ha (=160 μg/well)), the pest or weed control at 160 µg/disc, 500 g/ha was found to be 100%. In assay [7], the pest or weed control at 1 µg/cm2, 100 g/ha was found to be 100%. Also, the pest or weed control at 5 µg/cm2, 500 g/ha in assay [7] came to 100%.

Turning to `CC1CN(C(=O)c2ccc(-n3ncnc3[C@H](C)NC(=O)c3cc(C(F)(F)F)cc(C(F)(F)F)c3)nc2)CC(C)O1` (some centres unmarked) [Example I-5], the mortality at 4 mg/m2 in assay [1] is 80 to 100%. Further, the mortality at 20 mg/m2 in assay [1] and in [3] was 80 to 100% each time. Also, in assay [2], the pest or weed control at 100 ppm was 100%. In addition, the mortality at 100 g/ha amounted to 90% in assay [4], 90% in assay [5] and 100% in [8]. Moreover, the pest or weed control at 1 µg/cm2, 100 g/ha in assay [7] amounted to 100%. Further, the pest or weed control at 5 µg/cm2, 500 g/ha in assay [7] is 100%.

Turning to `Cc1nc([C@H](C)NC(=O)c2cc(C(F)(F)F)cc(C(F)(F)F)c2)n(-c2ccc(C(=O)N3CCOCC3)cn2)n1` [Example I-9, N-[(1S)-1-{3-methyl-1-[5-(morpholin-4-ylcarbonyl)pyridin-2-yl]-1H-1,2,4-triazol-5-yl}ethyl]-3,5-bis(trifluoromethyl)benzamide], the mortality at 4 mg/m2 in assay [1] was 80 to 100%. The mortality at 20 mg/m2 in assay [1] and in assay [3] was 80 to 100% each time. In addition, the pest or weed control at 100 ppm in assay [2] is 100%. In addition, the mortality at 100 g/ha in assay [4], in assay [5] and in [8] was 100% each time. The pest or weed control at 32 µg/disc, 100 g/ha in assay [6] came to 100%. Also, the pest or weed control at 1 µg/cm2, 100 g/ha in assay [7] was 100%. Moreover, the pest or weed control at 5 µg/cm2, 500 g/ha in [7] amounted to 100%.

As for `C[C@H](NC(=O)c1cc(C(F)(F)F)cc(C(F)(F)F)c1)c1ncnn1-c1ccc(C(=O)N2CCCC2)cn1` [Example I-11], in [1], the mortality at 4 mg/m2 is 80 to 100% and the mortality at 20 mg/m2 was 80 to 100%. The mortality at 100 g/ha in [4] worked out at 100%. In addition, in [6], the pest or weed control at 32 µg/disc, 100 g/ha is 80%. Moreover, in assay [7], the pest or weed control at 1 µg/cm2, 100 g/ha came out at 100% and the pest or weed control at 5 µg/cm2, 500 g/ha stood at 100%. Besides, the mortality at 100 g/ha in assay [8] was determined as 90%.

Consider `C[C@@H]1CN(C(=O)c2ccc(-n3ncnc3[C@H](C)NC(=O)c3cc(C(F)(F)F)cc(C(F)(F)F)c3)nc2)C[C@H](C)O1` [Example I-50], for which the mortality at 4 mg/m2 in assay [1] lay in the range of 80 to 100%; in [3] (surface concentration 4 mg/m^2, exposure 30 minutes), 80 to 100%. Also, the mortality at 20 mg/m2 in assay [1], in assay [3] and in assay [9] was 80 to 100% each time. Besides, the pest or weed control at 100 ppm in assay [2] was 100%. Moreover, the mortality at 100 g/ha in [5] and in assay [8] was 90% each time. In addition, the pest or weed control at 32 µg/disc, 100 g/ha in assay [6] was found to be 100%. In addition, the pest or weed control at 1 µg/cm2, 100 g/ha in assay [7] turned out to be 100%. For the same compound, in assay [7], the pest or weed control at 5 µg/cm2, 500 g/ha was 100%.
